In patent US12636299B2, “Terpenoid derivatives, pharmaceutical preparations containing these derivatives and their use in neuroprotection” (UNIVERZITA PALACKEHO V OLOMOUCI, priority 2020, dated 2026):

How the values were obtained:
[1] = tested on: glial A-172 cells; experiment: Cytotoxicity, Calcein AM viability assay on glial A-172 cells; assay type: cell-based, human; settings: NAC at 1000 μM
Protocol: The assay was performed in 96-well microplate with 7000 SH-SY5Y cells per well. After 48 h, old DMEM/F12 media was removed by fresh media containing tested compounds at 0.1, 1 and 10 μM concentrations for 24 h. Glial cell line A-172 purchased from ATCC and grown in same conditions as SH-SY5Y cell line. […] All tested compounds dissolved in DMSO were added into the medium. The maximum concentration of DMSO in media was kept below 0.1% (v/v). The cell viability was measured by Calcein AM (1 mg/ml ThermoFisher) viability assay. Solution of Calcein AM in PBS (0.75 μM) was pipetted to cells and incubated for 50 min. After that the fluorescence was measured at 488/517 nm (excitation/emission) using microplate reader Infinite M200 (TECAN). Calcein AM assay is based on the dye-intracellular-esterase cleavage of non-fluorescent dye (Calcein AM) by living cells to fluorescent dye (Calcein), while dying cells lose such ability.

[2] = tested on: glial A-172 cells; experiment: as above; assay type: cell-based, human; settings: 48 hours
[3] = tested on: astrocyte A-172 cells; experiment: 3NPA-induced model of Huntington's disease, astrocyte A-172 cells; assay type: cell-based, human; settings: difference to 10 mM 3NPA, 48 h
Protocol: (§1) Before application of toxin 3-nitropropionic acid (3NPA) for mimicking Huntington's disease, the 3NPA was dissolved in water and neutralized by sodium hydroxide. SH-SY5Y cells were seeded in the same density and differentiated by the procedure shown above. Astrocyte cells A-172 were also seeded as described in previous section. Both cell lines were co-treated by 3NPA (20 mM for SH-SY5Y cells, […]) and tested compounds at 0.1, 1 and 10 μM concentration for 48 h.

[4] = tested on: caspase-3,7 activity; experiment: Caspase-3,7 activity in salsolinol-induced model of PD on SH-SY5Y (Ac-DEVD-AMC); assay type: cell-based, human; settings: Homo sapiens, SH-SY5Y, percentages of control (800 μM SAL = 100), 24 hour co-treatment, read-out: Caspase-3,7 activity (% of reduction)
Protocol: Similarly, as shown in previous assay, cells grew on 96 multiwell plates at density 20000 cells per well underwent differentiation and treatment procedure for salsolinol model. After 24 hour co-treatment with salsolinol, caspase-3,7 (casp-3,7) activity as marker of apoptosis was quantified by its substrate Ac-DEVD-AMC according to Carrasco et al. (2003, BioTechniques, 34, 1064-1067). In this model, overall casp-3,7 activity induced by 800 μM SAL was consider as 100% and thus the reduction in casp-3,7 was observed after treatment with the protective terpenoid derivatives. As shown in Table 4 and FIG. 2, 800 μM SAL induced 2.9-fold increase.

[5] = tested on: human neuron-like SH-SY5Y cells; experiment: 3NPA-induced model of Huntington's disease, neuron-like SH-SY5Y cells; assay type: cell-based; settings: difference to 20 mM 3NPA, 48 h
[6] = tested on: SH-SY5Y human neuroblastoma cell line; experiment: Cytotoxicity, Calcein AM viability assay on neuron-like SH-SY5Y cells; assay type: cell-based
Protocol: The SH-SY5Y human neuroblastoma cell line obtained from ECACC (The European Collection of Authenticated Cell Cultures) was cultivated in Dulbecco's modified Eagle's Medium and Ham's F12 Nutrient Mixture (DMEM:F-12, 1:1), supplemented with 10% fetal bovine serum (FBS) and 1% penicillin and streptomycin at 37° C. in a humidified atmosphere 5% CO2, 95% humidity in passage limit up to ECACC+20. The assay was performed in 96-well microplate with 7000 SH-SY5Y cells per well. After 48 h, old DMEM/F12 media was removed by fresh media containing tested compounds at 0.1, 1 and 10 μM concentrations for 24 h. Glial cell line A-172 purchased from ATCC and grown in same conditions as SH-SY5Y cell line. A-172 cells were seeded in density 2000 cells per well and growing medium was replaced by treatment medium containing tested compounds in 0.1, 1 and 10 μM concentration; or in higher concentrations for R-LA or NAC positive controls for 48 hours. All tested compounds dissolved in DMSO were added into the medium. The maximum concentration of DMSO in media was kept below 0.1% (v/v). The cell viability was measured by Calcein AM (1 mg/ml ThermoFisher) viability assay. Solution of Calcein AM in PBS (0.75 μM) was pipetted to cells and incubated for 50 min. After that the fluorescence was measured at 488/517 nm (excitation/emission) using microplate reader Infinite M200 (TECAN). Calcein AM assay is based on the dye-intracellular-esterase cleavage of non-fluorescent dye (Calcein AM) by living cells to fluorescent dye (Calcein), while dying cells lose such ability. The values in Table 2 show the % of viability compared to control for all tested compounds. The results from DMSO control (medium with DMSO, <0.1% (v/v)) was postulated as 100% viability (see the first line of Table 2).

[7] = tested on: human neuron-like SH-SY5Y cells; experiment: 3NPA-induced model of Huntington's disease, neuron-like SH-SY5Y cells; assay type: cell-based; settings: 10 μM (NAC), difference to 20 mM 3NPA, 48 h
Protocol: as §1

[8] = tested on: human neuroblastoma cell line SH-SY5Y; experiment: Viability of differentiated SH-SY5Y in salsolinol-induced model of PD (Calcein AM); assay type: cell-based; settings: difference between 800 μM SAL and co-treatment group means, 24 hours
Protocol: Similarly, as in previous “Safety test”, the SH-SY5Y cells were seeded at density 7000 cells/well. After 48 h differentiation, old 1% DMEM/F12 media was replaced by fresh media containing 800 μM salsolinol (SAL) and tested compounds in 0.1, 1 and 10 μM concentrations. N-acetylcystein were chosen as positive control. After 24 hours, the cell viability was measured by Calcein AM viability assay. The values in Table 2 show % of viability of all tested compounds relative to control. The control (medium with DMSO, <0.1% (v/v)) was postulated as 100% viability (see the first line of the table), while the SAL exposure lead to decrease of viability to 65.4±0.97%.

[9] = tested on: superoxide radical formation; experiment: Oxidative stress (superoxide radical formation, DHE) in 3NPA-induced model on SH-SY5Y; assay type: cell-based, human; settings: 20 mM 3NPA = 100%, 24 hours
Protocol: Similarly, to previous assay, cells grown on 96-multiwell plates at density 20000 cells per well underwent differentiation and treatment procedure with 3-nitropropionic acid (3NPA) in this model. After 24 hours of co-treatment with 20 mM 3NPA, superoxide radical's formation as a marker of oxidative stress was quantified by dihydroethidium according to Kim et al. (2017, J. Med. Food, 20, 140-151). Briefly, neuron-like SH-SY5Y cells were centrifuged at 500 g for 5 min and 30 s, then media were replaced by 10 μM DHE PBS solution and kept at room temperature for 30 min. After that, DHE was read at 500 nm/580 nm (excitation/emission) by Infinite M200 Pro (Tecan) microplate reader. DHE is cell permeable dye which is selective for superoxide radical detection. Overall oxidative stress achieved by 20 mM 3NPA was consider as 100% and thus the reduction in superoxide radical's formation (OS reducing effect) was determined. As shown in Table 6 and FIG. 2, 20 mM 3NPA induced 2.7-fold increase in superoxide radical's formation.

## CC(=O)N[C@@H](CS)C(=O)O [NAC, N-acetyl cysteine, reference compound]
[1]
  effect on viability of astrocytes, in words: slight decrease in percentage of living cells
[2]; 10 μM (NAC)
  viability, percentage of DMSO control: 102.9%
[2]; 100 μM (NAC)
  viability, percentage of DMSO control: 96.6%
[2]; 1000 μM (NAC)
  viability, percentage of DMSO control: 83.0%
[3]; A-172, column head 0.5 μM (positive controls)
  Astro-protective effect (% of control): N/A (N/A = no protection)
[3]; A-172, column head 5 μM (positive controls)
  Astro-protective effect (% of control): N/A (N/A = no protection)
[3]; A-172, column head 50 μM (positive controls)
  Astro-protective effect (% of control): N/A (N/A = no protection)
[4]; 100 μM (NAC)
  activity at 100 µM: 60.4%
[4]; 1000 μM (NAC)
  activity at 1000 µM: 55.2%
[5]; 100 μM (NAC)
  Neuro-protective effect (% of control): 51.35 % of control
[5]; 1000 μM (NAC)
  Neuro-protective effect (% of control): 65.72 % of control
[6]; 10 μM (NAC)
  viability, percentage of DMSO control: 92.7%
[6]; 100 μM (NAC)
  viability, percentage of DMSO control: 97.5%
[6]; 1000 μM (NAC)
  viability, percentage of DMSO control: 101.5%
[7]
  Neuro-protective effect (% of control): N/A (N/A = no protection)
[8]; 10 μM (NAC)
  Neuroprotective effect (% of control): N/A (N/A = no protection)
[8]; 100 μM (NAC)
  Neuroprotective effect (% of control): N/A (N/A = no protection)
[8]; 1000 μM (NAC)
  Neuroprotective effect (% of control): 16.15 % of control
[9]; 10 μM (NAC)
  Superoxide radical formation (oxidative stress) %: 79.6%
[9]; 100 μM (NAC)
  Superoxide radical formation (oxidative stress) %: 79.7%
[9]; 1000 μM (NAC)
  Superoxide radical formation (oxidative stress) %: 48.5%
